Data published in article PMC10517971, “An inverse agonist of orphan receptor GPR61 acts by a G protein-competitive allosteric mechanism” (Nature Communications, 2023).

Experiments:
[1] = target: T1, HiBit-tagged wild-type GPR61 (Homo sapiens, UniProt Q9BZJ8); test: Receptor expression studies (HiBit surface and total expression), CHO-K1 cells; format: cell-based; details: effect of compound, Fig. 2b, c
T1 construct: expressed in transfected cells; host or cells: CHO-K1, transient (Fugene6)
Text: The human GPR61 (reference sequence NM_031936.4) cDNA was synthesized and subcloned into pcDNA5/FRT/TO (Thermo Fisher, Pittsburgh, PA). The pcDNA5/FRT/TO/ human GPR61 plasmid was then transfected into the Flp-In™-CHO Cell Line (Thermo Fisher, Pittsburgh, PA) and a doxycycline-inducible clonal cell line was selected (CHO TREx hGPR61 WT). Sequences encoding untagged and HiBit/hemagglutinin (HA)-tagged versions of the wild-type human GPR61 were synthesized and cloned into pcDNA3.1. The HiBit ([…]) and HA ([…]) tags were sequentially included after the N-terminal initiator methionine. […]
Parental CHO-K1 cells were maintained at 37 °C in a humidified environment (5% CO2) and grown in Dulbecco’s Modified Eagle Medium (DMEM) F-12 media (Gibco, 11320033) supplemented with 10% FBS, 1% Glutamax (Gibco, 35050061) and 100units/ml penicillin and streptomycin (Gibco, 15140122. Cells were dissociated using a cell dissociation solution (Gibco, 13151-014), counted, and resuspended in complete culture media without antibiotics. Cells were then transiently transfected using Fugene6 (Promega) in a 384-well plate format (Corning, 3570). For each well, 7500 cells were transfected with 5 ng of receptor plasmid, 20 ng of carrier DNA (Promega, PAE4881) and 0.075 μl Fugene6 in a final volume of 25 μl. […]

hERG = hERG (Homo sapiens, UniProt Q12809); test: hERG Binding Assay (fluorescence polarization, Cy3B N-desmethyl dofetilide); set-up: expressed in transfected cells; membrane homogenate used
Protocol: 67 black 384 well flat -bottomed polystyrene plates. Compound/vehicle or standard (5 µL) were added
68 to wells followed by His -tagged BRD4 (10 µL; 40 nM final concentration in assay). Following a
69 15 min incubation at room temperature a propri etary Cy5 -labelled probe molecule (5 µL; 2 nM
70 final concentration in assay) was added. Following, an additional 16 h incubation at room
71 temperature fluorescence polarization measurements were made using an Envision plate reader
72 (Perkin Elmer, Waltham, MA, USA) and mP values were used for analysis .
73 Acetylcholinesterase As say
74 The assay described is based on Ellmans method, in which thiocholine produced by the action of
75 acetylcholinesterase forms a yellow color with 5,5'- dithiobis(2- nitrobenzoic acid). The intensity
76 of the product color, measured at 405 nm, is proportionate to the enzyme activity in the sample.
77 To each well of a clear 96 polystyrene plate 90 µL enzyme solution (1mU/well) or phosphate
78 buffered saline (PBS) and 10 µL compound/standard or vehicle was added. The plate was […]
81 read at the 20 min time point. […]
100 at room temperature for 16 h. Fluorescence polarization measurements were made using an
101 Envision plate reader (Perkin Elmer, Waltham, M A, USA) and mP values were us ed for analysis.
102 Binding Ki values were determined using the Cheng- Prusoff equation (Ki = IC50/(1+L/Kd)), where […]

Sequence of hERG (Q12809 whole entry): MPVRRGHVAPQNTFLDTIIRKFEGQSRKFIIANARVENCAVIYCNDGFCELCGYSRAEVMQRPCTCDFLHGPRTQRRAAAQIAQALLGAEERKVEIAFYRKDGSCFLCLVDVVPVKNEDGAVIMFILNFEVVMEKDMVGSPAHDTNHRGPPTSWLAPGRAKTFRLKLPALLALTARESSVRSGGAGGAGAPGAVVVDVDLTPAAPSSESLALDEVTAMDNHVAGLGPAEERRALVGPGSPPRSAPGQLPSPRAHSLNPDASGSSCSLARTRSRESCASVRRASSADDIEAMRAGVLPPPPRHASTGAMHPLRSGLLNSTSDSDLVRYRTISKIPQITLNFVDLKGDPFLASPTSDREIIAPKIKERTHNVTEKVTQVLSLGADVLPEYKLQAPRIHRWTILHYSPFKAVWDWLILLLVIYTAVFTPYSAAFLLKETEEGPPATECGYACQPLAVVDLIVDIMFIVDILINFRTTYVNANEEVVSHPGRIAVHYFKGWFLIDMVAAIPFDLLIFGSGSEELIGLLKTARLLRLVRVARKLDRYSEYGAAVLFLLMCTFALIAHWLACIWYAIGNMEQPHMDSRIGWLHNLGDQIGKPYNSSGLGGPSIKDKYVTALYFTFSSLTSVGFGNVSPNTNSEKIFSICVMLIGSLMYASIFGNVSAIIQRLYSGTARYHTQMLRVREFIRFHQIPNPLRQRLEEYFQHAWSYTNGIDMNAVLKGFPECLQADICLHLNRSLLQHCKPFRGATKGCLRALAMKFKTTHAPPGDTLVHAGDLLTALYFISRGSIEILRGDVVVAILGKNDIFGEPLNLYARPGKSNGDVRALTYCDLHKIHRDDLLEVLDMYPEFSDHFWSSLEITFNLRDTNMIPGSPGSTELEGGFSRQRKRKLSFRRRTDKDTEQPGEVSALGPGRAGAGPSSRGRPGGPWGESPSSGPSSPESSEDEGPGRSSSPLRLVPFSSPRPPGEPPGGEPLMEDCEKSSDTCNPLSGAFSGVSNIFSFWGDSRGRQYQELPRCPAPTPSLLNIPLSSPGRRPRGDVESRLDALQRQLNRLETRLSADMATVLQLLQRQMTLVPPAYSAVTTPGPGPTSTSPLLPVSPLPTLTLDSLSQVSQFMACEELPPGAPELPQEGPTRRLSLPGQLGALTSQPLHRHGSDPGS
T1 sequence (Q9BZJ8 whole entry): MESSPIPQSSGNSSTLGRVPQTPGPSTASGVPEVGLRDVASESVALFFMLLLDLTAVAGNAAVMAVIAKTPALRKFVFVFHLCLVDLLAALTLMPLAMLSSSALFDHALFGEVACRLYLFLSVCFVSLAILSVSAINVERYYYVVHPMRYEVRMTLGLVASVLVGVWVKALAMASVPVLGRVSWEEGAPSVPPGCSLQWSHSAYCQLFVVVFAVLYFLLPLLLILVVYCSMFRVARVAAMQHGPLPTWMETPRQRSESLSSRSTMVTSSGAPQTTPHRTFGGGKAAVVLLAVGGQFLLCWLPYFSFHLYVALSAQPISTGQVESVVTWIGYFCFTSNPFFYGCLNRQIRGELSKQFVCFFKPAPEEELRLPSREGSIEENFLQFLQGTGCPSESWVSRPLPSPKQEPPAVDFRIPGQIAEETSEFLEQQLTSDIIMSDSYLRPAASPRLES

For `CCOc1cc(C)nc(N(CCOC)S(=O)(=O)c2ccc(NCc3c(F)cncc3F)nc2OC)n1` [Compound 1], the “cell surface expression of HiBit-tagged wild-type GPR61” value [1] was “increased” and the Ki (hERG) was greater than 80 µM.
